Entries after “also recorded” stand apart in the source; their conditions may differ.
How the values were obtained:
[1] = tested on: CHO-K1 cells; assay: Doxorubicin transport (accumulation) in CHO-K1 cells; format: cell-based; details: 2 μM toremifene; 1 μM doxorubicin; wild-type CHO-K1
[2] = tested on: HOV-007; assay: Number of living cells (bioluminescence), ovarian cancer line HOV-007; details: doxorubicin 0 μg/ml, 3 days
Description: (§1) Two human ovarian cell lines were established in vitro from fresh serous ovarian cancer tissues. The lines are coded HOV-007 and HOV-018. The cells were cultivated in Eagle's MEM containing 1% unstripped foetal calf serum. The assays were carried out at 37° C. in 5% CO2 on 96 well plates.
presented. Number of cells was quantitated after 3 days'

[3] = tested on: HOV-018; assay: Number of living cells (bioluminescence), ovarian cancer line HOV-018; details: doxorubicin 0 μg/ml
Description: as §1

[4] = tested on: MCF-7/DOX cells; assay: Inhibition of cell growth / reversal of MDR in MCF-7/DOX cells (methylene blue); format: cell-based, human; details: for Inhibition of cell growth, Actual: 2880 min
Description: The cells were cultivated in 100 ul volumes in 96-well microtiter plates. The principle of the method was to cultivate cells in the presence of the drugs/ drug combinations for 48 hours. After this time the living cells were stained with methylene blue and quantitated spectrophotometrically using microtiter plate reader (Titertek Model MCC/340) interfaced to an Apple IIe computer. Inhibition of the cell growth is expressed as a percentage of absorbance of vehicle treated control cultures.

[5] = tested on: MCF-7/DOX; assay: Sensitization of MCF-7/DOX by patients' plasma ultrafiltrate; format: cell-based, human; details: FIG. 8
Description: Cells were growth in Corning 75-cm^2 tissue flasks and were maintained in exponential growth using RPMI 1640 medium supplemented with 5% fetal bovine serum in 5% CO2 and 95% air. […] The cells were cultivated in 100 ul volumes in 96-well microtiter plates. The principle of the method was to cultivate cells in the presence of the drugs/ drug combinations for 48 hours. After this time the living cells were stained with methylene blue and quantitated spectrophotometrically using microtiter plate reader (Titertek Model MCC/340) interfaced to an Apple IIe computer. Inhibition of the cell growth is expressed as a percentage of absorbance of vehicle treated control cultures. Human plasma samples were obtained from patients participating clinical phase I studies receiving 10, 20, 40, 60, 200 or 400 mg toremifene daily for eight weeks. Ultrafiltrate from the plasma was prepared by placing plasma specimens in Amicon CF-10 filters (MW cutoff 10 000) followed by centrifugation at 5000×g for 20 minutes. The ultrafiltrates were used in order to study if the concentrations achieved clinically were able to sensitize MCF-7/DOX. Part of the growth medium was replaced by plasma ultrafiltrate and the cells were allowed to grow for 4 days, at which time they were stained and quantitated as described above.

[6] = mouse, in vivo
Description: (§2) Pieces of fresh human tumors were implanted under the outer capsule of mouse kidney. Mice were treated with different combinations of cytotoxic drugs (doses preselected according to toxicity of each combination), with or without toremifene (150 mg/kg p.o.). Control animals received saline injections. The drugs were given on five consecutive days after the inoculation of the tumors. The sizes of the tumor pieces were measured by stereo microscope equipped with ocular micrometer immediately after inoculation (initial size) and on the sixth day when the animals were killed (final size). The difference final size - initial size describes the growth or regression of the tumor. The measuring unit was ocular micrometer unit (omu). 10 omu is identical to 1.0 mm. In addition to the tumor size, the weight gain of the animals was measured. The weight gain describes the toxicity of the treatment. In general, the ratio final weight/ pretest weight should be more than 0.80. Otherwise the toxicity is considered unacceptable.

[7] = tested on: Ovarian ca.; details: subrenal capsule assay, all tumor types
Description: as §2

[8] = tested on: Lewis Lung (LL) tumor; assay: Schedule dependency of antitumor effect in Lewis Lung tumor; details: toremifene 150 mg/kg p.o. days 1-5
Description: (§3) Lewis Lung (LL) or melanoma B-16 tumor cells, 2×10^6 cells/animal, were inoculated intramuscularly to female C-57 mice. Tumors were allowed to grow to the mean diameter of 1.5 cm after which toremifene/doxorubicin treatments were started as indicated in the next tables. Tumor size was measured before treatment and after 10 days in 2 dimensions and the mean was considered as tumor diameter. Weight of the animals was also recorded.

[9] = tested on: B-16 melanoma; assay: Schedule dependency of antitumor effect in B-16 melanoma; details: toremifene 150 mg/kg p.o. days 1-5
Description: as §3

[10] = tested on: α1 -acid glycoprotein (AAG); details: cited from earlier work
[11] = in vitro; details: hamster, cho-k1 cells
Description: (§4) Initial cell growth studies were carried out to investigate the effect of combination toremifene +doxorubicin in doxorubicin sensitive and resistant cells. Cell cultures were carried out using wild type CHO-K1 cells as well as CHO-Adr cells, the latter being selected by a series of step-wise selections of doxorubicin resistant clones in presence of 0.4 ug/ml of doxorubicin. […] The resistant cells were stable in cell culture in the absence of doxorubicin. Both cell lines were cultivated in Hams F10 medium supplemented with 5% newborn calf serum, 5% foetal calf serum, antibiotics and 3mM glutamine. The cells were maintained as monolayer cultures 37° C. under 5% CO2. Drug sensitivity in CHO-K1and CHO-Adr cells was assessed by a semi-automated colorimetric MTT assay. The assay is dependent on the cellular reduction of MTT (3-U4,5-dimethylthiazol-2-ylA-2,5-diphenyl tertazolium bromide, thiazolyl blue) by the mitochondrial dehydrogenase of viable cells to a blue formazan product which was measured spectrophotometrically. The cells were seeded on 96-well plates and allowed to settle for 12 hours at 37° C. in 5% CO2. Appropriate drug concentrations diluted in growth medium were added for 24 hours. Toremifene was dissolved in 95% ethanol stock solution, doxorubicin stock solution was prepared in water. […] The cells were incubated with the drugs for 24 hours, after which the cells were washed twice with phosphate buffered saline before being placed in 200 μl fresh medium for a further 48 hours. At the end of this incubation 0.1 mg MTT was added to each well and incubated for 4 hours. The medium was carefully aspirated and the crystals were solubilised in 100 μ l DMSO (dimethyl sulfoxide). Absorbances at 540 nm were read immediately on an ELISA Multiskan reader. The results were expressed as a percentage of absorbance of drug treated cells compared to controls.
(§5) The effect of AAG in the concentration of 0.1 to 2 mg/ml was assessed on the potentiation produced by toremifene.

[12] = in vitro; details: hamster, cho-adr cells
Description: as §4, §5

[13] = cited from earlier work
[14] = tested on: CHO-K1 cells; assay: MTT cell viability assay in wild-type CHO-K1 cells
Description: as §4, §5

[15] = tested on: Human melanoma UV-me-1; assay: Toremifene and doxorubicin in human melanoma UV-me-1; details: doxorubicin 0 μg/ml, 2 days, control 100
[16] = tested on: CHO-Adr cells; assay: MTT cell viability assay in doxorubicin resistant CHO-Adr cells
Description: as §4, §5

[17] = drug 3.0 μg/ml +1 μM doxorubicin

CN(C)CCOc1ccc(/C(=C(/CCCl)c2ccccc2)c2ccccc2)cc1 [toremifene]
Drug accumulation of doxorubicin [1]: enhanced drug accumulation
Number of living cells ([2]; toremifene 1.0 μM): 95% of control values
Number of living cells ([2]; toremifene 3.0 μM): 71% of control values
Number of living cells ([2]; toremifene 10.0 μM): 66% of control values
Number of living cells ([3]; toremifene 1.0 μM, 4320 min): 104% of control values
Number of living cells ([3]; toremifene 3.0 μM): 99% of control values
Number of living cells ([3]; toremifene 10.0 μM, 4320 min): 97% of control values
Effectiveness in reversing MDR ([4]; MCF-7/DOX cells, Table 5 and FIG. 7): almost equally effective
Inhibition of cell growth, Actual [4, 17]: 38 % control
Potential (potentiation of doxorubicin activity) [4, 17]: 58 % control
Inhibition of cell growth, Actual ([4]; drug […] +1 μM doxorubicin): 31 % control
Potential (potentiation of doxorubicin activity) ([4]; drug […] +1 μM doxorubicin): 48 % control
MDR reversing effect in patients' sera [5]: A clear concentration-dependency
Effect of toremifene addition on weight gain [6]: not influenced by toremifene addition
Sensitivity to cytotoxic drugs in human tumors [7]: can increase the sensitivity to cytotoxic drugs in human tumors
Change of tumor diameter [8]: +5.4 mm
Change of tumor size [9]: +3.2 mm
Binding to α1-acid glycoprotein [10]: bound in some extent
MCC at 24 h [11]: > 10 µM
MCC at 24 h [12]: > 10 µM
Safety / toxicity in clinical use ([13]; at dose levels or concentrations required for MDR reversal): very safe drug
maximal tolerated dose ([13]; clinical phase I trials): 400 to 600 mg daily
Effect of AAG on toremifene toxicity ([14]; AAG 2 mg/ml): protected both cell lines from toremifene toxicity
Effect of toremifene on doxorubicin toxicity at highest AAG level ([14]; AAG 2 mg/ml): cell viability was no different from that when doxorubicin alone was present; also recorded: no longer any effect of toremifene on doxorubicin toxicity
AAG concentration above which potentiation by toremifene is gradually reversed ([14]; doxorubicin + 10 μM toremifene): above 0.5 mg/ml
Potentiation of doxorubicin toxicity ([14]; toremifene 1 to 10 μM): incremental potentiation of doxorubicin toxicity
Toremifene and doxorubicin in UV-me-1 (living cells) ([15]; toremifene 0.5 μM): 97
Toremifene and doxorubicin in UV-me-1 (living cells) ([15]; toremifene 5.0 μM): 32
Potentiation of doxorubicin toxicity ([16]; CHO-Adr): the degree of potentiation was greater
Relative potentiation of doxorubicin toxicity, resistant vs wild-type ([16]; CHO-Adr vs CHO-K1, increasing concentrations of toremifene): far greater in the CHO-Adr cell line than in the parent cell line; also recorded: greater for the resistant than the wild-type cells
Effect of AAG on toremifene toxicity ([16]; CHO-Adr, AAG 2 mg/ml): protected both cell lines from toremifene toxicity
Effect of toremifene on doxorubicin toxicity at highest AAG level ([16]; CHO-Adr, AAG 2 mg/ml): cell viability was no different from that when doxorubicin alone was present; also recorded: no longer any effect of toremifene on doxorubicin toxicity
AAG concentration above which potentiation by toremifene is gradually reversed ([16]; CHO-Adr, doxorubicin + 10 μM toremifene): above 0.5 mg/ml
Increase of sensitivity to doxorubicin ([16]; CHO-K1 and CHO-Adr, toremifene concentrations not inhibiting cell growth on their own): can be increased by toremifene concentrations which do not inhibit cell growth on their own

Reference: US4990538A, “Use of toremifene and its metabolites for the reversal of multidrug resistance of cancer cells against cytotoxic drugs” (priority 1989, dated 1991)
